This is an account of results in patent US12679839B2, “Cyclin-dependent kinase 7 (CDK7) non-covalent inhibitors” (JANSSEN PHARMACEUTICA NV, priority 2020, dated 2026).

Assay [1] deals with T1, CDK7/Cyclin H/MAT-1 complex (Homo sapiens, UniProt P50613).
T1 construct: Human CDK7 (amino acids 1-346); His6 (N); TEV protease cleavage site (N); made in house; host or cells: baculovirus-SF9 insect cells
Put plainly: Flint assay, end-point fluorescence (5 nM CDK7/Cyclin H/MAT-1 complex). Type of assay: biochemical. The note with it: read-out: CDK7 (5 nM) pIC50 (converted). The method, then: Human CDK7 (amino acids 1-346) containing an N-terminal His6-tag followed by a tobacco etch virus (TEV) protease cleavage site, human MAT1 (amino acids 1-309) and human cyclin H (amino acids 1-323) were co-expressed in the baculovirus-SF9 insect cell expression system to generate a trimeric complex. Cell pellets were collected 72 h post-infection and were resuspended by Dounce homogenization in 20 mM Hepes-NaOH (pH 8.0), 300 mM NaCl, 10% glycerol, 2 mM dithiothreitol DTT), and 20 mM Imidazole supplemented with cOmplete™ Protease Inhibitor Cocktail (Roche) and 25 U/mL Benzonase® Nuclease HC according to the manufacturer's instructions. Cells were lysed by passing through a Microfluidics M110Y Microfluidizer 3 times at 600 kPa followed by centrifugation at 38,000×g at 4° C. for 1 hour. The supernatant was loaded onto a pre-equilibrated HisTrap HP column and eluted in 20 mM Hepes-NaOH (pH 8.0), 50 mM NaCl, 10% glycerol, 2 mM DTT, and 400 mM Imidazole. The eluate was further purified by gel filtration on a Superdex S200 16/60 column and eluted with 20 mM Hepes-NaOH (pH 7.5), 50 mM NaCl, 10% Glycerol, 2 mM DTT. Fractions containing a trimeric complex of CDK7, cyclin H, and MAT1 in a 1:1:1 ratio were pooled and concentrated to 3 mg/mL in a 10 kDa MWCO concentrator, and diluted to a final concentration of 1.6 mg/mL in 11.1 mM Hepes-NaOH (pH 8.0), 27.8 mM NaCl, 1.1 mM DTT and 50% glycerol.
Compounds with potencies approaching the limit of detection of the assay (IC50≤10 nM) were further assessed in a more sensitive fluorescence end-point assay.
[formula] where νo is the rate in the absence of inhibitor, νmin is the rate at highest inhibitor concentration, and h is the Hill coefficient. Flint Assay (5 nM CDK7/Cyclin H/MAT-1 Complex)
The continuous absorbance assay was converted to an end-point fluorescence assay following the NADH fluorescence signal decrease at the excitation and emission wavelengths of 340 nm and 440 nm, respectively.
Under the same concentrations of substrates and coupling reagents used in the absorbance assay, the fluorescence assay was performed at a reduced concentration of the CDK7/Cyclin H/MAT-1 complex of 5 nM (final concentration) with a reaction time of 24 hours. The percent of inhibition was calculated by the following equation. Percent of inhibition=(Sample−NC)/(PC−NC)*100 where NC is the mean if negative control (reaction without inhibitor), and PC is the mean of positive control (reaction with complete inhibition).
Dosing curves were fitted using the following equation to obtain IC50: Y=Bottom+(Top−Bottom)/(1+10^((log IC50−X)*Hill slope)) where X=log10 of the compound concentration; top and bottom can be defined by PC and NC respectively. Imaging-Based Cellular RNA PolII Ser5 Phosphorylation Assay

In assay [2] the target is T1, CDK7/Cyclin H/MAT-1 complex. In words: Absorbance kinetic assay (20 nM CDK7/Cyclin H/MAT-1 complex). The conditions noted are these: read-out: CDK7 (20 nM) pIC50 (converted). Type of assay: biochemical. The gist of the method: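 Trimeric complex (His6-TEV CDK7 1-346, MAT1 1-309, cyclin H 1-323) from Sf9 cells, at 20 nM, phosphorylating RNA Pol II-derived CDK7/9-tide; ADP coupled via PK/LDH to NADH depletion read at 340 nm every 2 min for 8 h. Steady-state slopes gave % inhibition; IC50 from 11-point Hill fit.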

T1 sequence (P50613 whole entry, the tested form may be a part): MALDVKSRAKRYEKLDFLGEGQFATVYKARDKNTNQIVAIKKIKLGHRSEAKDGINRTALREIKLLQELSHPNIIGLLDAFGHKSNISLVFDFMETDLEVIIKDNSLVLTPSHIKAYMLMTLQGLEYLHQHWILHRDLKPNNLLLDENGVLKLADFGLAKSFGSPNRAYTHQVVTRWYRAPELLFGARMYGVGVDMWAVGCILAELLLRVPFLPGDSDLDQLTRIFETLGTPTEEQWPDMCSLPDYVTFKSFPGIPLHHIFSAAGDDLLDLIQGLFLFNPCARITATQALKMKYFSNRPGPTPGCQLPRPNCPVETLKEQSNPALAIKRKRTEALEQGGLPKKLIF
T1 sequence (P51946 whole entry partner, the tested form may be a part): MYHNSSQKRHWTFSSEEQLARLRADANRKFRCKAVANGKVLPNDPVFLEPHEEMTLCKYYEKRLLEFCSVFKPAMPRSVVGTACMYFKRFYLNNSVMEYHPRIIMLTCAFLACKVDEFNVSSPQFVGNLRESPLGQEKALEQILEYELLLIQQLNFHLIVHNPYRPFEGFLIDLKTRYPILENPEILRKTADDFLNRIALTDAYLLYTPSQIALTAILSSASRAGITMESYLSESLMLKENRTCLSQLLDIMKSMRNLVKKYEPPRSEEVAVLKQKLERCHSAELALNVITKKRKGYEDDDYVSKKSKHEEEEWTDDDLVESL
T1 sequence (P51948 whole entry partner, the tested form may be a part): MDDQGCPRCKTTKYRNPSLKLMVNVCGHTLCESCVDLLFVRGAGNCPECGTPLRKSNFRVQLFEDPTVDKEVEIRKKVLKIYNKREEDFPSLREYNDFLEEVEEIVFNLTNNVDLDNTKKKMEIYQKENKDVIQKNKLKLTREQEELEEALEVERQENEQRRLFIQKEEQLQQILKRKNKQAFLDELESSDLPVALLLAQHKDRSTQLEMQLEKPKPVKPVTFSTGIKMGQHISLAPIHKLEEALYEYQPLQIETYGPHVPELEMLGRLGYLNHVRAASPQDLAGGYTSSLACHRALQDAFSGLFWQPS

As for `C[C@@H]1Cc2cnc(N[C@H]3CCN(C)C(=O)C3)nc2CN1C(=O)[C@H]1CCN(C)C[C@@H]1c1ccccc1` (relative stereo) [Compound 5], the IC50 in assay [1] was 2.14 nM; in assay [2] it was under 9.77 nM.
For `C[C@@H]1Cc2cnc(NCc3ccn(C)n3)nc2CN1C(=O)[C@H]1CCN(C)C[C@@H]1c1ccccc1F` (relative stereo) [Compound 131] the same measures were 9.12 nM and 61.7 nM.
Take `C[C@@H]1Cc2cnc(NCc3ccn(C)n3)nc2CN1C(=O)[C@@H]1CCN(C)C[C@H]1c1ccccc1F` (relative stereo) [Compound 130]: the IC50 in assay [1] is 7.94 nM; in assay [2], 38 nM.
